Test results published in patent US9296716B2, “Androgen receptor ligands” (THE PROVOST, FELLOWS, FOUNDATION SCHOLARS, & THE OTHER …, priority 2011, dated 2016).
Positions count from the first letter of the chain named. “Also recorded” adds a separate entry of the source. Read-outs that look alike come from different tables or passages of the source.

Columns and labels:
AR-LBD wt = molecular target: T1, AR-LBD wt (Homo sapiens, UniProt P10275); assay: Lanthascreen TR-FRET AR coactivator (D11-FxxLF) assay, AR-LBD wt; assay type: biochemical; conditions: for type of AR antagonism (full / partial): TR-FRET in agonist and antagonist mode; for IC50: TR-FRET, D11-FxxLF peptide, DHT = EC80
T1 sequence (P10275 669-900 limits assumed): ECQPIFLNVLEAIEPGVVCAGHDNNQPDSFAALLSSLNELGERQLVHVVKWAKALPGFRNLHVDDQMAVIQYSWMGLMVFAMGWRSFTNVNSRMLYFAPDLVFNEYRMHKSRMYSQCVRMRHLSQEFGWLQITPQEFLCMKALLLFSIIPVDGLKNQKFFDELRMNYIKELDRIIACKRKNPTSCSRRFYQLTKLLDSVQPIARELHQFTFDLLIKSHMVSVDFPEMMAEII

[1] = Solubility in FP assay buffer (fluorescence interference/aggregation check); assay type: physicochemical; conditions: high concentration (50 μM)
Source text: (§1) Fluorescence polarization assays are susceptible by fluorescence interference/aggregation and light scattering issues by compounds present in the wells. This could lead to false positive or false negative hits. This problem is addressed in and the presence of false ‘hits’ can be determined by plotting the total fluorescence intensity of the assay versus the anisotropy for each compound.
(§2) To minimize the possibility of such false negative or positive reporting, the FP data was rigorously interrogated through examination of both auto-fluorescence and aggregation (FIG. 3). […] Diarylhydrazides are AR Potential Selective Coactivator Interaction Disruptors

[2] = molecular target: T2, Progesterone Receptor (PR) LBD (Homo sapiens, UniProt P06401); assay: TR-FRET SRC1-4 coactivator recruitment assay, PR LBD; assay type: biochemical; conditions: Progesterone = EC80; for effect on PR recruitment of fluorescent labelled SRC1-4: 100 μM to 45 nM; for IC50: TR-FRET, ± SEM (n = 6), read-out: NR LBDs IC50 (μM) PR
T2 construct: purchased Invitrogen PV4666
T2 sequence (P06401 679-913 limits assumed): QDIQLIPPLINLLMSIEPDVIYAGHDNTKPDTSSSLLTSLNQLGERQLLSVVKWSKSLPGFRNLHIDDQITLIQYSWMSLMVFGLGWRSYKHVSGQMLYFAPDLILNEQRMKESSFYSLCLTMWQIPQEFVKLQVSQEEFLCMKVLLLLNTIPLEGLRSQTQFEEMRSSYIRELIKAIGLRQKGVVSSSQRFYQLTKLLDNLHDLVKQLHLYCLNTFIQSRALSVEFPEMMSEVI
Description: (§3) Compound binding affinities for Progesterone Receptor (PR), Glucocorticoid Receptor (GR), Estrogen Receptor alpha and Estrogen Receptor beta were determined using TR-FRET (Table 2).
(§4) Lanthascreen TR-FRET AR Coactivator Assay kit (Invitrogen, cat no. PV4381) was used to screen for potential coactivator disruptors.
(§5) TR FRET values were calculated at 10 flashes per well, using a delay time of 100 μs and integration time 200 μs as recommended by the Invitrogen assay guidelines. […] A serial dilution of compounds was firstly prepared in 100×DMSO (Sigma-Aldrich) starting from the maximum desired concentration to achieve a 12 point range concentration using 96-well polypropylene plates (Nalgene Nunc, Rochester, N.Y.). Each 100× solution was diluted to 2× concentration with TR-FRET co-regulator buffer A (Invitrogen proprietary buffer), yielding a final concentration of 1% DMSO in each well.
(§6) D11-FxxLF and Tb antibody were premixed in light protecting vials prior to use. A final concentration of DTT 5 mM was used in the assay buffer in order to prevent protein degradation. All plates (agonist and antagonist mode) were incubated between 2 and 4 hours at room temperature protected from light prior to TR-FRET measurement. […] Data was fitted using the sigmoidal dose response (variable slope) available from Graphpad Prism 5. Y=Bottom+(Top-Bottom)/(1+10^((Log IC50−X)*HillSlope))
(§7) The same procedure was used for AR T877A (Invitrogen cat no. PV4667), PR (Invitrogen cat no. PV4666), ER-α (Invitrogen cat no. PV4544), ER-β (Invitrogen cat no. PV4541) and GR (Invitrogen cat no. PV4683). The assay was adapted to exclude possible non-specific aggregation mechanism of inhibition by adding very low concentration of detergent Triton X-100 (0.001%) to the assay buffer following the Shoichet review guidelines [Shoichet BK (2006) Screening in a spirit haunted world. Drug Discov Today 11:607-615].

[3] = molecular target: T3, Estrogen Receptor alpha (ER-α) LBD (Homo sapiens, UniProt P03372); assay: TR-FRET PGC1-α coactivator recruitment assay, ERα LBD; assay type: biochemical; conditions: Estradiol = EC80; for effect on ERα recruitment of fluorescent labelled PGC1-α: 100 μM to 45 nM; for IC50: TR-FRET, ± SEM (n = 6), read-out: NR LBDs IC50 (μM) ER-α
T3 sequence (P03372 311-547 limits assumed): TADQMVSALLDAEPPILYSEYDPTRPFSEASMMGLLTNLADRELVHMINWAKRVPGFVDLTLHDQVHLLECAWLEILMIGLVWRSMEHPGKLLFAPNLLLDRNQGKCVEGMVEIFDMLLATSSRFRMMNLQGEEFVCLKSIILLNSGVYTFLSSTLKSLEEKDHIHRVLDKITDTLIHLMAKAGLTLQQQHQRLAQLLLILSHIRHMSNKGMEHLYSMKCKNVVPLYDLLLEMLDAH
Description: as §3
(§8) Selectivity of the diarylhydrazide scaffold for the AR was determined through a TR-FRET assay in ERα (FIGS. 8A & 9A1) and ERR (FIGS. 8B & 9A2). […] The non-LBP nature of this inhibition was confirmed by a FP assay (FIGS. 9C, 9B1 & 9B2).
as §4, §5, §6, §7

[4] = molecular target: Estrogen Receptor beta (ER-β) LBD (Homo sapiens, UniProt Q92731); assay: TR-FRET PGC1-α coactivator recruitment assay, ERβ LBD; assay type: biochemical; conditions: Estradiol = EC80; for effect on ERβ recruitment of fluorescent labelled PGC1-α: 100 μM to 45 nM; for IC50: TR-FRET, ± SEM (n = 6), read-out: NR LBDs IC50 (μM) ER-β
Estrogen Receptor beta (ER-β) LBD, sequence (Q92731 264-498 limits assumed): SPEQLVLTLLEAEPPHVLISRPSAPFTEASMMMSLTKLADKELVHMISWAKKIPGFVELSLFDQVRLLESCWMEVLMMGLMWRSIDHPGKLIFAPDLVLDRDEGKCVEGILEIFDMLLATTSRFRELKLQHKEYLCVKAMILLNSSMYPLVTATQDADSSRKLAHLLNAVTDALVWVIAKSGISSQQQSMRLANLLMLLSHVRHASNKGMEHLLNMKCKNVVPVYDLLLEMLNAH
Description: as §3, §8, §4, §5, §6, §7

[5] = molecular target: T4, Glucocorticoid Receptor (GR) LBD (Homo sapiens, UniProt P04150); assay: TR-FRET SRC1-4 coactivator recruitment assay, GR LBD; assay type: biochemical; conditions: Dexamethasone = EC80; for effect on SRC1-4 recruitment by GR LBD: 100 μM to 12.5 μM or single point 100 μM; for IC50: TR-FRET, ± SEM (n = 6), read-out: NR LBDs IC50 (μM) GR
T4 construct: purchased Invitrogen PV4683
T4 sequence (P04150 524-758 limits assumed): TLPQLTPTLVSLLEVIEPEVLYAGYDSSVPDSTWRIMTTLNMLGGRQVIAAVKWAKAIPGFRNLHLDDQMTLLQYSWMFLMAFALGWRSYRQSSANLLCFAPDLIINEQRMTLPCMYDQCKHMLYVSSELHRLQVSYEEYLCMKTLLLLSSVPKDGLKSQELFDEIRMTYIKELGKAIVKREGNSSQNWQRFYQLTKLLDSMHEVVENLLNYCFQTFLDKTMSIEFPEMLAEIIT
Description: as §3
Dexamethasone bound receptor recruitment of the fluorescently labelled SCR1-4 coactivator was unimpaired at screening concentrations up to 100 μM for all the diarylhydrazides evaluated (FIG. 5).
as §4, §5, §6, §7

[6] = molecular target: T5, AR LBP (AR-LBD and Fluormone complex) (Rattus norvegicus, UniProt P15207); assay: Fluorescence polarization (PolarScreen) AR competitor assay; assay type: binding; conditions: for displacement of bound fluorescently-labelled ligand from the LBP: FP assay
T5 construct: purchased Invitrogen P3018
T5 sequence (P15207 651-882 limits assumed): T1 sequence (P10275 669-900 limits assumed)
Source text: The TR-FRET assay cannot differentiate between direct coactivator antagonists acting on the LBD surface and ‘classical’ AR antagonists which also functionally disrupt coactivator recruitment by displacing DHT from the ligand binding pocket.
as §1, §2
PolarScreen Androgen Receptor Competitor Assay Kit Green (Invitrogen, cat no. P3018) was used to investigate the binding of the test compound to the LBP site, occupied by a high affinity ligand (Fluormone).
100× test compound solutions in DMSO were diluted in AR green buffer (Invitrogen) to achieve 2× concentrations and placed in a 384 well plate (Corning, cat no. 3576) with 40 μl volume capacity. AR-LBD was supplemented with 5 mM DTT to prevent protein degradation. AR-LBD and Fluormone (2×) mix are prepared separately and then added to each compound dilution to achieve a final concentration LBD-fluormone of 50 nM and 2 nM respectively. Plates were incubated protected from light for at least 4 hours. Controls included a maximum mP positive control, which consists of the AR-LBD and fluormone mix (2×), and a minimum mP control, containing only Fluormone (2×). A vehicle control was added to account for DMSO effect, and a blank control containing buffer only. Fluorescence polarization was measured with PHERAstar equipment (BMG LabTech) using an optic module with excitation at 485 nm and emission at 530 nm.

AR-LBD T877A mutant = molecular target: T6, AR-LBD T877A mutant (Homo sapiens, UniProt P10275, T878A); assay: TR-FRET coactivator assay, AR T877A mutant; assay type: biochemical; conditions: D11-FxxLF peptide, DHT = EC80
T6 construct: purchased Invitrogen PV4667
T6 sequence (P10275 669-900 T878A): T1 sequence (P10275 669-900 limits assumed) with T210A

LNCaP cells = assay: LNCaP cell proliferation assay (androgen deprived, AlamarBlue); assay type: cell-based; conditions: 10^−10M, 0.1% DMSO, steroid depleted conditions
Description: To determine the optimal DHT concentration and length of treatment required for cell proliferation assays, we tested a range of DHT concentrations in 0.1% DMSO for 5 or 7 days in LNCaP cells cultured in FBS stripped phenol red free media. […] Media and treatments were replaced every second incubation day (FIGS. 12 A and B)
For cell viability (end point) assays LNCaP, PC-3 and PWR-1E cells were seeded at 2.5*10^4/ml density in 200 μl volume of a 96-well plate in triplicate and incubated for 24 hours prior testing. Test compounds were included at different concentrations to achieve a final concentration of 0.5% DMSO in each well. Effect of 0.5% DMSO on cell-viability was also evaluated. Cell viability was assessed after 24 hours of treatment using 10% Alamar Blue reagent (Invitrogen) for each well. Cell viability was monitored by the reduction of resazurin, a blue, cell-permeable and non-toxic compound, to resorufin, a red and highly fluorescent product. Viable cells continuously convert resazurin to resorufin, increasing the overall colour and fluorescence of the media surrounding cells. Fluorescence intensity can be quantitatively determined with a fluorescence microplate reader at excitation/emission 544 nm/590 nm (Spectramax Gemini). For hormone dependent cell proliferation assays in androgen deprived LNCaP cells, cells were seeded at 2*10^4 cells/ml in a 24-well plate in triplicate. Cells were plated in phenol red free RPMI Glutamax (Invitrogen) supplemented with 10% charcoal-stripped FBS to deplete endogenous steroids 48 hours prior the assay as described in previous reports. […] Cells were treated with different concentrations of test compounds with or without 0.1 nM DHT to achieve a final concentration of 0.1% DMSO in each well. A control for the vehicle was included to ensure no effect on viability could be detected. Media and treatments were replaced every second day, after washing the cells twice with 1×PBS. Supernatants were collected after five days for secreted PSA levels evaluation and cell proliferation was assessed for the same plate using Alamar Blue in order to exclude non-specific effects due to toxicity issues.

Compound | type of AR antagonism (full / partial) (AR-LBD wt) | solubility in the chosen assay buffer [1] | effect on PR recruitment of fluorescent labelled SRC1-4 [2] | IC50 [2] | effect on ERα recruitment of fluorescent labelled PGC1-α [3] | IC50 [3] | effect on ERβ recruitment of fluorescent labelled PGC1-α [4] | IC50 [4] | effect on SRC1-4 recruitment by GR LBD [5] | IC50 [5] | inhibition at 1 µM ([6]; FP, 1 μM, read-out: inhibition of the LBD-F complex) | displacement of bound fluorescently-labelled ligand from the LBP [6] | IC50 (AR-LBD T877A mutant) | IC50 (AR-LBD wt; read-out: AR (wt)) | IC50 (AR-LBD wt; read-out: Activity (AR wt TR-FRET)) | increase of LNCaP cell proliferation (LNCaP cells)
O=C(N/N=C/c1cc2ccccc2cc1O)c1cc2ccccc2cc1O [MDG483] | full AR antagonists | solubility issues | partially inhibit | 8.4 ± 1.4 µM | partially inhibit | 10.2 ± 3 µM | partially inhibit | 12 ± 0.4 µM | do not affect | > 100 µM | ~0% | – | – | – | – | –
O=C(N/N=C/c1cccc(O)c1O)c1cc2ccccc2cc1O [MDG173] | full AR antagonists | – | – | – | – | – | – | – | – | – | – | inability to displace | – | – | – | –
O=C(N/N=C/c1cc(Br)ccc1O)c1cc2ccccc2cc1O [MDG292] | full AR antagonism; also recorded: full AR antagonists | – | partially inhibit | 22.5 ± 5.4 µM | partially inhibit | > 100 µM | partially inhibit | > 100 µM | do not affect | > 100 µM | – | – | 12.4 ± 2.2 µM | 13.3 ± 3.1 µM | 13.3 ± 3.1 µM | –
COc1cc(/C=N/NC(=O)c2cc3c(ccc4ccccc43)o2)cc(I)c1O [MDG15] | full AR antagonists | – | – | – | – | – | – | – | – | – | – | inability to displace | – | – | – | –
C[C@]12CCC(=O)C[C@@H]1CC[C@@H]1[C@@H]2CC[C@]2(C)[C@@H](O)CC[C@@H]12 [DHT, dihydrotestosterone, reference compound] | – | – | – | – | – | – | – | – | – | – | – | – | – | – | – | 2 fold
